# In US20090170860A1, “Use of PARP-1 Inhibitors” (PHARMA MAR, S.A., SOCIEDAD UNIPERSONAL, priority 2005, published 2009):
# Where two headings read alike, the source gives them in different places.
# Columns and labels:
# [1] = test system: PARP-1 +/+ and −/− mouse embryonic fibroblasts (MEFs); assay: MTS cytotoxicity assay in PARP-1 +/+ and −/− MEFs; format: cell-based; settings: PARP-1 −/− versus +/+ MEFs, 72 hours after treatment
# Description: PARP-1 +/+and −/− mouse embryonic fibroblasts (MEFs) were seeded into 96-well plates at a density of 5,000 cells/well. After 24 hours, cells were treated with serially diluted concentrations of ET-743. 72 hours following the initial treatment, an MTS (3-(4,5-dimethylthiazol-2-yl)-5([…])-2-(4-sulfophenyl)-2H-tetrazolium) cytotoxicity assay was performed. Results were plotted as percent cellular viability versus ET-743 or Zalypsis® concentration (FIGS. 1a and 1b, respectively).
# [2] = test system: SW620 colon carcinoma cells; assay: MTS cytotoxicity assay, ET-743 with or without PARP inhibitor; format: cell-based; settings: for increased sensitization of cells to ET-743: SW620, PARP inhibitor (nicotinamide 10 mM or NU1025 100 μM) plus ET-743 versus ET-743 alone; for IC50: 72 hours, MTS
# Description: Four hours later, media containing ET-743 and the PARP inhibitor was washed out and replaced with another fixed dose of PARP inhibitor. Finally, 4 hours later, a final fixed dose of PARP inhibitor was added. 72 hours following the initial treatment, an MTS cytotoxicity assay was performed.
# PARP = PARP (Homo sapiens, UniProt P09874); settings: cited from earlier work
# Chain of PARP (P09874 whole entry): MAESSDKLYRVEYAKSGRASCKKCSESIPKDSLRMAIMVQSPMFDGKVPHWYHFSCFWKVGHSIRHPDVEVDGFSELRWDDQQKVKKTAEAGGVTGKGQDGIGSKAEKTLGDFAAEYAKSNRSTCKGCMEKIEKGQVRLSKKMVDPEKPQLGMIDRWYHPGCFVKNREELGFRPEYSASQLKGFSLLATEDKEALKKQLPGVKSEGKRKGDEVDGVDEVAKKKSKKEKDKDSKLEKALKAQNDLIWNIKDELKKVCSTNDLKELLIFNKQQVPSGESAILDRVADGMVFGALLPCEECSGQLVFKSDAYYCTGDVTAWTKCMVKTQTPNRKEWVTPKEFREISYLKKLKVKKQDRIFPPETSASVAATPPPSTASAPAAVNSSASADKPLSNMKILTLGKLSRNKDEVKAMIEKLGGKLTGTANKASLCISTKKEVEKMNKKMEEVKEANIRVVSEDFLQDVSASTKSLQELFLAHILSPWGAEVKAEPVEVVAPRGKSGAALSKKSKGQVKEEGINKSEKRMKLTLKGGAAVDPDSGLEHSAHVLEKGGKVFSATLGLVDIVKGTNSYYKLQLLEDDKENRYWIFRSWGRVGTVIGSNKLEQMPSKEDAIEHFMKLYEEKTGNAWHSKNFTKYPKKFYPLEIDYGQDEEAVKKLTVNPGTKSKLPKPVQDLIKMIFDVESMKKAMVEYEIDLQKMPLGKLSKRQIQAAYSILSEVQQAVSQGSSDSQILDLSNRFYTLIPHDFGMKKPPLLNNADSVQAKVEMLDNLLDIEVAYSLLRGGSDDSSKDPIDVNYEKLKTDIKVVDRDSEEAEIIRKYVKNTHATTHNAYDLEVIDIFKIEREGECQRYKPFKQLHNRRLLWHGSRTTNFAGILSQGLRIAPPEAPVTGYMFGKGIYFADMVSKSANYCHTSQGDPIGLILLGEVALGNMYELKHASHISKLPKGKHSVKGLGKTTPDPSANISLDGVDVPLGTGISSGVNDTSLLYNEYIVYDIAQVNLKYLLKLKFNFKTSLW
compound,measurement,setting,value
COc1c(C)cc2c(c1O)[C@@H]1[C@@H]3Cc4c(OC(C)=O)c(C)c5c(c4[C@H](CNC(=O)/C=C/c4cccc(C(F)(F)F)c4)N3[C@@H](O)[C@H](C2)N1C)OCO5 [Zalypsis®],increase in cellular sensitivity on loss of PARP-1,[1],110 fold
NC(=O)c1cccnc1 [nicotinamide],inhibition at 10000 µM,"[2]; Homo sapiens, SW-620, SW620, nicotinamide alone (10 mM), read-out: cell death, PARP inhibitor treatment alone",~20%
same,increased sensitization of cells to ET-743,[2],4.9 fold
Cc1nc2c(O)cccc2c(=O)[nH]1 [NU1025],"cytotoxicity, PARP inhibitor treatment alone","[2]; SW620, NU1025 alone (100 μM), versus untreated cells",no increased level of cytotoxicity above the untreated cells
same,increased sensitization of cells to ET-743,[2],4.8 fold
same,potency as PARP inhibitor relative to nicotinamide,PARP,"up to 1,000 times"
"COc1cc2c(cc1O)CCN[C@]21CS[C@@H]2c3c(OC(C)=O)c(C)c4c(c3[C@H](COC1=O)N1[C@@H]2[C@H]2c3c(cc(C)c(OC)c3O)C[C@@H]([C@@H]1O)N2C)OCO4 [ET-743, Ecteinascidin-743]",increase in cellular sensitivity on loss of PARP-1,[1],~30 fold
same,IC50,"[2]; Homo sapiens, SW-620, SW620, ET-743 alone, NU1025 experiment, read-out: IC50 ET-743 alone (FIG. 2b)",1.8 nM
same,IC50,"[2]; Homo sapiens, SW-620, SW620, ET-743 alone, nicotinamide experiment, read-out: IC50 ET-743 alone (FIG. 2a)",2 nM
same,IC50,"[2]; Homo sapiens, SW-620, SW620, NU1025 100 μM, 2 hour pre-treatment and repeated fixed doses, read-out: IC50 ET-743 in combination with NU1025 (FIG. 2b)",0.37 nM
same,IC50,"[2]; Homo sapiens, SW-620, SW620, nicotinamide 10 mM, 2 hour pre-treatment and repeated fixed doses, read-out: IC50 ET-743 in combination with nicotinamide (FIG. 2a)",0.41 nM
